{"source": "patent US20110123617A1", "about": "“CLIOQUINOL FOR THE TREATMENT OF HEMATOLOGICAL MALIGNANCIES” (priority 2007, published 2011)", "key": {"p21": {"system": "p21", "test": "Immunoblotting of p21", "assay_type": "cell-based", "conditions": "low micromolar concentrations", "excerpt": "A) Effect of increasing concentrations of clioquinol on LP1 and MY5 multiple myeloma cells at twenty hours after clioquinol treatment; determined by SDS-PAGE immunoblotting. B) Effect of increasing concentrations of clioquinol on the G0/G1 ratio in AML3, U937, LP1 and MY5 cells at twenty hours after clioquinol treatment; determined by PI staining and flow cytometry. To prepare cytosolic extracts, NIH3T3 cells and myeloma cells were washed with phosphate-buffered saline (PBS, pH 7.4) and suspending in lysis buffer [10 mM Tris (pH 7.4), 150 mM NaCl, 0.1% Triton X-100, 0.5% sodium deoxycholate, and 5 mM EDTA] containing protease inhibitors (Complete tablets, Roche, Indianapolis, Ind.). Protein concentrations were determined by the Bradford assay. Immunoblot assays were performed by subjecting equal amounts of protein to SDS-PAGE gels followed by transfer to Nitrocellulose membranes. Membranes were probed with polyclonal rabbit anti-human cyclin D2 (0.5 μg/ml, both from Santa Cruz Biotech, Santa Cruz, Calif.), or monoclonal mouse-anti human p21 (1:200 v/v, Santa Cruz Biotech), monoclonal mouse-anti human p27 (1:2,500 v/v BD Transduction Laboratories), polyclonal mouse-anti human ubiquitin (1:2,000 v/v Calbiochem) and monoclonal mouse-anti-β-actin (1:10,000 v/v) (Sigma, St. Lois, Mo.). […] Detection was performed by the Enhanced Chemical Luminescence (ECL) method (Pierce, Rockford, Ill.)."}, "[1]": {"system": "proteasome in primary AML cells", "test": "Proteasome activity in primary AML cells", "assay_type": "cell-based, human", "experimental": "Proteasome activity of primary acute myeloid leukemia (AML) blasts or normal peripheral blood stem cells (PBSC) after twenty hours of treatment with clioquinol (CQ), or an equimolar concentration of […] and CuCl2 (Cu). After treatment, the preferential chymotrypsin-like substrate Suc-LLVY-AMC was added and the rate of free AMC was measured over time with a florescent spectrophotometric plate reader (excitation=380 nm, emission=460 nm). Cellular proteins were extracted from cells with lysis buffer (50 mM HEPES pH 7.5, 150 mM NaCl, 2 mM ATP, and 1% Triton X-100). The chymotrypsin-like activity of the proteasome was measured by incubating equal amounts of protein with the preferential chymotrypsin-like substrate Suc-LLVY-AMC in assay buffer (50 mM Tris-HCl, pH 7.5, 150 mM NaCl) for two hours. After incubation, […] and the rate of free AMC was measured over time with a florescent spectrophotometric plate reader (excitation=380 nm, emission=460 nm). The inventors examined the effect of clioquinol and copper on primary AML cells and normal hematopoietic cells. Primary AML were obtained from the peripheral blood of patients with AML. Normal hematopoietic stem cells (PBSC) were obtained from the peripheral blood of volunteers donating stem cells for allotransplant. […] After incubation, cell lysates were prepared and the enzymatic activity of the proteasome measured as above."}, "[2]": {"system": "acute leukemia cell lines", "test": "Cell viability (MTS assay), acute leukemia cell lines", "assay_type": "cell-based", "conditions": "6/7 AML cell lines, forty-eight hours; read-out: IC50 (cell death)", "experimental": "(§1) Cell viability of leukemia, myeloma, solid tumor and primary cells forty-eight hours after clioquinol treatment by MTS assay. Cell viability was assessed with the CellTiter96® Aqueous Non-Radioactive Assay kit according to manufactures' instructions (Promega). Apoptosis was measured by flow cytometry to detect cell surface Annexin V expression and propidium iodide (PI) uptake (Biovision, Mountain View, Calif., USA) as previously described (20) The inventors tested the effects of clioquinol on the viability of acute leukemia (n=7), myeloma (n=14), and solid tumor (n=5) cell lines as well as primary AML samples (n=6) and primary normal hematopoietic cells (n=3). Forty-eight hours after incubation, clioquinol induced cell death in 6/7 AML, 12/14 myeloma, 0/5 solid tumor, […] and 0/3 normal hematopoietic cells with an IC50 <20 μM (FIG. 5). Of note, after oral administration of clioquinol, trough serum concentrations of 20 μM can be achieved in patients (32)."}, "[3]": {"system": "primary AML patient samples", "test": "Cell viability (MTS assay), primary AML patient samples", "assay_type": "cell-based, human", "experimental": "as §1"}, "MY5 cells": {"system": "MY5 cells", "test": "Apoptosis by Annexin V and PI staining and flow cytometry", "assay_type": "cell-based", "experimental": "(TM) (20 μM). Apoptosis was measured by Annexin V and PI staining and flow cytometry. Cell viability was assessed with the CellTiter96® Aqueous Non-Radioactive Assay kit according to manufactures' instructions (Promega). Apoptosis was measured by flow cytometry to detect cell surface Annexin V expression and propidium iodide (PI) uptake (Biovision, Mountain View, Calif., USA) as previously described (20)"}}}
{"compound": "Oc1c(I)cc(Cl)c2cccnc12", "note": "[clioquinol, 5-chloro-7-iodo-8-hydroxyquinoline]", "values": [{"measurement": "expression of p21", "setting": "p21", "value": "increased expression"}, {"measurement": "enzymatic activity of the proteasome", "setting": "[1]", "value": "inhibited the proteasome"}, {"measurement": "IC50", "setting": "[2]", "value": "< 20", "unit": "µM"}, {"measurement": "IC50", "setting": "[3]; Homo sapiens, 6/7 primary AML patient samples, forty-eight hours, read-out: IC50 (cell death)", "value": "< 20", "unit": "µM"}, {"measurement": "potency of clioquinol", "setting": "[3]; primary AML cells supplemented with copper", "value": "increased the potency of clioquinol"}, {"measurement": "clioquinol-induced cell death", "setting": "MY5 cells; copper supplemented in the medium (CuCl2 20 μM)", "value": "enhanced the toxicity of clioquinol"}, {"measurement": "viability of MY5 cells", "setting": "MY5 cells; twenty-four hours", "value": "reduces the viability of MY5 cells"}, {"measurement": "clioquinol-induced cell death", "setting": "MY5 cells; with copper chelator tetrathiomoylbdate (20 μM)", "value": "abrogated clioquinol-induced cell death"}]}
